Experimental data taken from patent US8901133B2, “Heterocyclic compounds and uses thereof” (Infinity Pharmaceuticals, Inc., priority 2010, dated 2014).

How the values were obtained:
Type in all cases: biochemical
PI3Kδ = target: T1, PI3Kδ (Homo sapiens, UniProt O00329); assay: PI3 Kinase HTRF assay, PI3Kδ; conditions: 10 μM PIP2, 10 μM ATP; read-out: PI3K δ IC50
T1 construct: purchased Millipore Corporation 14-604-K
From the text: (§1) A PI3 Kinase HTRF® assay kit (cat No. 33-016) purchased from Millipore Corporation was used to screen compounds disclosed herein. This assay used specific, high affinity binding of the GRP1 pleckstrin homology (PH) domain to PIP3, the product of a Class 1A or 1B PI3 Kinase acting on its physiological substrate PIP2. During the detection phase of the assay, a complex was generated between the GST-tagged PH domain and biotinylated short chain PIP3. The biotinylated PIP3 and the GST-tagged PH domain recruited fluorophores (Streptavidin-Allophycocyanin and Europium-labeled anti-GST respectively) to form the fluorescence resonance energy transfer (FRET) architecture, generating a stable time-resolved FRET signal. The FRET complex was disrupted in a competitive manner by non-biotinylated PIP3, a product formed in the PI3 Kinase assay.
(§2) PI3 Kinase α, β, γ and δ activity was assayed using the PI3 Kinase HTRF® assay kit (catalogue No. 33-016) purchased from Millipore Corporation. Purified recombinant PI3Kα (catalogue No. 14-602-K), PI3Kβ (catalogue No. 14-603-K), PI3Kγ (catalogue No. 14-558-K) and PI3Kδ (catalogue No. 14-604-K) were obtained from Millipore Corporation. Purified recombinant PI3K enzyme was used to catalyze the phosphorylation of phosphatidylinositol 4,5-bisphosphate (PIP2 at 10 μM) to phosphatidylinositol 3,4,5-trisphosphate (PIP3) in the presence of 10 μM ATP. The assay was carried out in 384-well format and detected using a Perkin Elmer En Vision Xcite Multilabel Reader. Emission ratios were converted into percent inhibitions and imported into GraphPad Prism software. The concentration necessary to achieve inhibition of enzyme activity by 50% (IC50) was calculated using concentrations ranging from 20 μM to 0.1 nM (12-point curve). IC50 values were determined using a nonlinear regression model available in GraphPad Prism 5. […]

PI3Kα = target: T2, PI3Kα (Homo sapiens, UniProt P42336); assay: PI3 Kinase HTRF assay, PI3Kα; conditions: 10 μM PIP2, 10 μM ATP; read-out: PI3K α IC50
T2 construct: purchased Millipore Corporation 14-602-K
From the text: as §1, §2

PI3Kβ = target: T3, PI3Kβ (Homo sapiens, UniProt P42338); assay: PI3 Kinase HTRF assay, PI3Kβ; conditions: 10 μM PIP2, 10 μM ATP; read-out: PI3K β IC50
T3 construct: purchased Millipore Corporation 14-603-K
From the text: as §1, §2

PI3Kγ = target: T4, PI3Kγ (Homo sapiens, UniProt P48736); assay: PI3 Kinase HTRF assay, PI3Kγ; conditions: 10 μM PIP2, 10 μM ATP; read-out: PI3K γ IC50
T4 construct: purchased Millipore Corporation 14-558-K
From the text: as §1, §2

T1 sequence (O00329 whole entry): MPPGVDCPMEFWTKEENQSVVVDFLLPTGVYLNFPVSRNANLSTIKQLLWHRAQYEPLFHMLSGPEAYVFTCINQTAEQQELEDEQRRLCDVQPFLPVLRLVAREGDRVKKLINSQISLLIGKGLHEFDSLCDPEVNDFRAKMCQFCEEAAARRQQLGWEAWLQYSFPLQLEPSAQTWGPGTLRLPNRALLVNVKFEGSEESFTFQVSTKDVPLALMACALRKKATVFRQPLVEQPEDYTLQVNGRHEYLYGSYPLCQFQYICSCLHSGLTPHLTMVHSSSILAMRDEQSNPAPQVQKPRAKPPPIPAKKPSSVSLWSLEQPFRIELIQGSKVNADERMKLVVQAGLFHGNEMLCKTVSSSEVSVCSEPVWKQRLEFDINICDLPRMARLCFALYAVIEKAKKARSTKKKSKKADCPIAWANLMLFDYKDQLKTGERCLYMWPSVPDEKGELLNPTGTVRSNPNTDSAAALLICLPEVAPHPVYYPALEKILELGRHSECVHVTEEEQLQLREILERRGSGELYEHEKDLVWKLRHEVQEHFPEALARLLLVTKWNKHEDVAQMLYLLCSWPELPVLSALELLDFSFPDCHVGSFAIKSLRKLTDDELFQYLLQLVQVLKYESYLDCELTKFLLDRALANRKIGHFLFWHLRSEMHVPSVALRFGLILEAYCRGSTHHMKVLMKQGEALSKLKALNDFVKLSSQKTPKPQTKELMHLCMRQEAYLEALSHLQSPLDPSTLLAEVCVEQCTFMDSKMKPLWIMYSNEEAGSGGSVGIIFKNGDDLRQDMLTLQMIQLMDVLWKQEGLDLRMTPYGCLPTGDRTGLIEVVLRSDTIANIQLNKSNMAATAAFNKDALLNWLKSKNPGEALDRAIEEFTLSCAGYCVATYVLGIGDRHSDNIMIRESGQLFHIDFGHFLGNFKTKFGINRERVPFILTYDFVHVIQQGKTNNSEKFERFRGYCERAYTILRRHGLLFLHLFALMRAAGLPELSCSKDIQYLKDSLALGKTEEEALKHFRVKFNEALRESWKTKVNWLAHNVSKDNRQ
T1 sequence (P27986 whole entry partner): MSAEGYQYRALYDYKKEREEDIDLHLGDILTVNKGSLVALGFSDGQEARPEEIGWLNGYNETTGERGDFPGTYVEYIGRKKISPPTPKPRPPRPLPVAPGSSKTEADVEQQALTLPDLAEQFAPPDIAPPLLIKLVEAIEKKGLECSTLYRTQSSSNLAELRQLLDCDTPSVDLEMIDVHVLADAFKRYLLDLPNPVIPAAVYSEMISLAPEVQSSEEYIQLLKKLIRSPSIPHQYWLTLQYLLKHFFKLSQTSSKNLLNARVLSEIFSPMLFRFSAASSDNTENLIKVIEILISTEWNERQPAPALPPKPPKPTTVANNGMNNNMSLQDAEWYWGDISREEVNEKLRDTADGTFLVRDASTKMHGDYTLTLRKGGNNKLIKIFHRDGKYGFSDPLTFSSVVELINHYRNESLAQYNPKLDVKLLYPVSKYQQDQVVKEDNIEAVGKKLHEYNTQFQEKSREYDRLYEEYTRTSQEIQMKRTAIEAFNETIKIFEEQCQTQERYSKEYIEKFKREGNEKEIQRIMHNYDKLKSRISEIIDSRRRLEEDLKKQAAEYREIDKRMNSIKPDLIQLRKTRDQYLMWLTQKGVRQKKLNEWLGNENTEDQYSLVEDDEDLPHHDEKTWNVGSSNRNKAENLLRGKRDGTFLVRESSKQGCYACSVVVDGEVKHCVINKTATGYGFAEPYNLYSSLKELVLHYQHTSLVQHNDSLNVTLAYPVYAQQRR
T3 sequence (P42338 whole entry): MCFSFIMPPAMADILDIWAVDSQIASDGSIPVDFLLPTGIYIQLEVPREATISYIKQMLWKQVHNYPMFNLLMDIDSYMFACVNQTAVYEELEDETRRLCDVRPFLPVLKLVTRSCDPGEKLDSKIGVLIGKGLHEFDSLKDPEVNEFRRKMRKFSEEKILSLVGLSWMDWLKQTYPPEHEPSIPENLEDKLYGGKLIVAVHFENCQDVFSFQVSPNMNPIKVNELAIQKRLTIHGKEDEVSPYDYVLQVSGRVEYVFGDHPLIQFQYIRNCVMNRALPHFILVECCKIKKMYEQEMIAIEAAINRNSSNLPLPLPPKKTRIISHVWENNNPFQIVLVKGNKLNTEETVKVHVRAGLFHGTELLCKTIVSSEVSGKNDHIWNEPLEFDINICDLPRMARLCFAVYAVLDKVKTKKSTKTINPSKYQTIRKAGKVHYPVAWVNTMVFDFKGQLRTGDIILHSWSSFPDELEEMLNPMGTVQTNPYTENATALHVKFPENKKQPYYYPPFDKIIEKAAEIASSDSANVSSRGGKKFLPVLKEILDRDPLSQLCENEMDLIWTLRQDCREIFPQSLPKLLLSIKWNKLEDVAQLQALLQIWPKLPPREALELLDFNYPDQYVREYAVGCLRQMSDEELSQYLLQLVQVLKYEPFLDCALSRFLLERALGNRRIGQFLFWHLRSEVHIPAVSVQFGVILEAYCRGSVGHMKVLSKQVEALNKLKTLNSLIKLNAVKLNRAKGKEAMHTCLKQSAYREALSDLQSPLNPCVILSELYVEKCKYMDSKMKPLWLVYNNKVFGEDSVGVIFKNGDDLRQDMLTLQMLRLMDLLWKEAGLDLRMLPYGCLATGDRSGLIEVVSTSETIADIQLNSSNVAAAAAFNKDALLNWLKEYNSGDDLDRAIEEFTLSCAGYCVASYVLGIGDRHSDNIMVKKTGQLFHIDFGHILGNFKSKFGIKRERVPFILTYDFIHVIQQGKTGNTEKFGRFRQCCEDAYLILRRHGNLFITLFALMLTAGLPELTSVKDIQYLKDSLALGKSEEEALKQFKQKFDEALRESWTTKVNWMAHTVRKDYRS
T3 sequence (P27986 whole entry partner): as the sequence (P27986 whole entry partner) above
T2 sequence (P42336 whole entry): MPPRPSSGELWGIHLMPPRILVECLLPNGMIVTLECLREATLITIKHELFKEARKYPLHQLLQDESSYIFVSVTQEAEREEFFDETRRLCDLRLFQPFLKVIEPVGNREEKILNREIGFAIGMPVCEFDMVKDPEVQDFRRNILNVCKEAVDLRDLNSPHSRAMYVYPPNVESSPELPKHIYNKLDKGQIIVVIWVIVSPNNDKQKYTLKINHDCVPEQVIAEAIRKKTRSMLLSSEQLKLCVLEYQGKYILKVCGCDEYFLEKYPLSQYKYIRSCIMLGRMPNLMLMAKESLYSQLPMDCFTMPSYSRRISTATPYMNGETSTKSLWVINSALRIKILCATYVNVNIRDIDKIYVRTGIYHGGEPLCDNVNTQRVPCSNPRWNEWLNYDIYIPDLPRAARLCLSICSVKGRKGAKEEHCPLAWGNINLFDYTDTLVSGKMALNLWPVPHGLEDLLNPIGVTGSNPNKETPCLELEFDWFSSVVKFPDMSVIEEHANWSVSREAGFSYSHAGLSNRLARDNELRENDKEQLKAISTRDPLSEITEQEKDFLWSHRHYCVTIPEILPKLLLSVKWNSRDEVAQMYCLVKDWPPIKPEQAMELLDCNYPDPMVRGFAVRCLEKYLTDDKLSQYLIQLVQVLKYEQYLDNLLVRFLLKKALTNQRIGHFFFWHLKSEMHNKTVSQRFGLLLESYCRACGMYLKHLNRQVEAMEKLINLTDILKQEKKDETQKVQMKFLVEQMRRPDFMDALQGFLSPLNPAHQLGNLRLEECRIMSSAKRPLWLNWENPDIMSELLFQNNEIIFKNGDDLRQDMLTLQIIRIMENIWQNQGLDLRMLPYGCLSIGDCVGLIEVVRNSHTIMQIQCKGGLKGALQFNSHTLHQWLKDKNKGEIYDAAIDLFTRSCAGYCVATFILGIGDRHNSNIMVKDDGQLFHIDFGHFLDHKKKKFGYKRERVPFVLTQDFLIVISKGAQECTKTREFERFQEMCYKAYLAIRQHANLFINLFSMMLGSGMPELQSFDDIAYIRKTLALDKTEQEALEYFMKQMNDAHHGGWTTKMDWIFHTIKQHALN
T2 sequence (P27986 whole entry partner): as the sequence (P27986 whole entry partner) above
T4 sequence (P48736 whole entry): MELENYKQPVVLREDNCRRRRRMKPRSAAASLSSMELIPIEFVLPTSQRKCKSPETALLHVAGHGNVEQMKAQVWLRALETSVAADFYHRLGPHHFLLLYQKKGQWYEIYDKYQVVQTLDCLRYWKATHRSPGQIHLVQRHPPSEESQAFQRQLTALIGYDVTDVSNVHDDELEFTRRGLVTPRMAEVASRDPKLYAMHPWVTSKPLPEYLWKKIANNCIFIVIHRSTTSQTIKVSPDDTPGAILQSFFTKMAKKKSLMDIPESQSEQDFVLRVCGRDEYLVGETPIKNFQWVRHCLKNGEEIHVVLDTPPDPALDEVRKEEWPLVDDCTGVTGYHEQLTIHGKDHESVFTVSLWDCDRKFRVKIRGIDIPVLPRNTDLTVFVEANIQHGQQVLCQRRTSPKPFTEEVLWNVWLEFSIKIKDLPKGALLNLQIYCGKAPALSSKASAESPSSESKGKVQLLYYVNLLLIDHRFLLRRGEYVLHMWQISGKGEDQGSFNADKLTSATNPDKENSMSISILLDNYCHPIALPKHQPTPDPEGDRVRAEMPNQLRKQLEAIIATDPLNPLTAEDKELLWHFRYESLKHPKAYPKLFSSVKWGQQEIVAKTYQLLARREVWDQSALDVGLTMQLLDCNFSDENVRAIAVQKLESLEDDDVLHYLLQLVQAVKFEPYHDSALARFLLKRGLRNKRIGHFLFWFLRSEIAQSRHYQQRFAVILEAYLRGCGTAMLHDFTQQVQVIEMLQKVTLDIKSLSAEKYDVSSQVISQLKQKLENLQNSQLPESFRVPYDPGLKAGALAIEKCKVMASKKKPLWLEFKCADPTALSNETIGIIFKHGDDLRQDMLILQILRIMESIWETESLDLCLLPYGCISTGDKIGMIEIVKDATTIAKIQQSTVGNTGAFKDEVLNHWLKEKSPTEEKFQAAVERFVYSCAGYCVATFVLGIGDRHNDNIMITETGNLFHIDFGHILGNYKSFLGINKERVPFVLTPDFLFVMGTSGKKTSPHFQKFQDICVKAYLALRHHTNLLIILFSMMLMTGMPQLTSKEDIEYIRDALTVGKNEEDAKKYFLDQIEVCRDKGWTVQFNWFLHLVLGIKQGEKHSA

Structure (SMILES) | IC50 (PI3Kδ) [µM] | IC50 (PI3Kα) [µM] | IC50 (PI3Kβ) [µM] | IC50 (PI3Kγ) [µM]
C[C@H](Nc1ncnc2[nH]cnc12)c1cc2cccc(Cl)c2c(CN2CCC2)n1 [Compound 9] | < 1 | > 10 | < 10 | < 10
C[C@H](Nc1ncnc2[nH]cnc12)c1cc2cccc(Cl)c2c(C(=O)N2CC(O)C2)n1 [Compound 22] | < 0.1 | > 10 | < 10 | < 1
C[C@H](Nc1ncnc2[nH]cnc12)c1cc2cccc(Cl)c2c(C(=O)N(C)c2ccccc2)n1 [Compound 27] | < 1 | > 10 | > 10 | < 10
C[C@H](Nc1ncnc2[nH]cnc12)c1cc2cccc(Cl)c2c(C(=O)N2CCC(O)CC2)n1 [Compound 28] | < 0.1 | > 10 | > 10 | < 1
Cc1nc(-c2nc([C@H](C)Nc3ncnc4[nH]cnc34)cc3cccc(Cl)c23)no1 [Compound 32] | < 1 | > 10 | < 10 | < 10
C[C@H](Nc1ncnc2[nH]cnc12)c1cc2cccc(Cl)c2c(CC(=O)N2CCOCC2)n1 [Compound 35] | < 1 | > 10 | > 10 | < 10
C[C@H](Nc1ncnc2[nH]cnc12)c1cc2cccc(Cl)c2c(C(=O)NC2CCOCC2)n1 [Compound 48] | < 0.1 | > 10 | > 10 | < 10
C[C@H](Nc1ncnc2[nH]cnc12)c1cc2cc(F)ccc2c(CCN2CCOCC2)n1 [Compound 55] | < 1 | > 10 | > 10 | > 10

Continued, values first:

IC50 (PI3Kδ) [µM] | IC50 (PI3Kα) [µM] | IC50 (PI3Kβ) [µM] | IC50 (PI3Kγ) [µM] | Structure (SMILES)
< 0.1 | > 10 | > 10 | < 10 | C[C@H](Nc1ncnc2[nH]cnc12)c1cc2cccc(Cl)c2c(C(=O)NC2CCC(O)CC2)n1 (stereo partly drawn) [Compound 58]
< 0.1 | < 10 | < 1 | < 10 | C[C@H](Nc1ncnc2scnc12)c1cc2cccc(Cl)c2c(CCN2CCOCC2)n1 [Compound 72, (S)—N-(1-(8-chloro-1-(2-morpholinoethyl)isoquinolin-3-yl)ethyl)thiazolo[5,4-d]pyrimidin-7-amine]
< 10 | > 10 | > 10 | > 10 | C[C@H](Nc1cc(Cl)nn2ccnc12)c1cc2cccc(Cl)c2c(CCN2CCOCC2)n1 [Compound 76, (S)-6-chloro-N-(1-(8-chloro-1-(2-morpholinoethyl)isoquinolin-3-yl)ethyl)imidazo[1,2-b]pyridazin-8-amine]
< 10 | > 10 | > 10 | > 10 | C[C@H](Nc1cc(Cl)nn2ccnc12)c1cc2ccccc2c(CCN2CCOCC2)n1 [Compound 78]
< 1 | > 10 | > 10 | > 10 | C[C@H](Nc1ncnc2[nH]cnc12)c1nc(CCN2CCOCC2)c2ccccc2c1F [Compound 87]
< 1 | < 10 | < 10 | < 10 | C[C@H](Nc1ncnc2[nH]cnc12)c1cc2cccc(Cl)c2c(OCC(C)(C)O)n1 [Compound 88]
< 1 | > 10 | < 10 | < 10 | C[C@H](NC(=O)c1nccnc1N)c1cc2cccc(Cl)c2c(CCN2CCOCC2)n1 [Compound 89, (S)-3-amino-N-(1-(8-chloro-1-(2-morpholinoethyl)isoquinolin-3-yl)ethyl)pyrazine-2-carboxamide]
< 0.1 | < 10 | < 10 | < 1 | C[C@H](Nc1ncnc2[nH]cnc12)c1cc2cccc(Cl)c2c(SCC[N+]2([O-])CCOCC2)n1 [Compound 94]
– | – | – | < 1 | C[C@H](Nc1ncnc2cccnc12)c1cc2cccc(Cl)c2c(C(=O)N2CCOC[C@H]2C)n1 [Compound 251]
– | – | – | < 10 | C[C@H](Nc1ncnc2scnc12)c1cc2cccc(Cl)c2c(C(=O)N2CCOC[C@H]2C)n1 [Compound 252]
